Values of other authors in patent US20050276865A1, “Peroxide compounds for the prevention and treatment of sexual dysfunction in humans” (priority 2004, published 2005).

Columns and labels:
[1] = system: men with ED; settings: injection into the corpus cavernosum (Montorsi et al. 1997)
[2] = not given; remark: listed apart in the source

Solubility in water [2] | Stability in aqueous medium ([2]; aqueous medium) | Compound | Men who achieved improved spontaneous erections and required less frequent injections [1] [%] | Irritancy as reported (NTF Chemical Repository) | Toxicity and carcinogenicity concerns (according to many studies (Haywood et al. 1991))
 |  | CCCCC[C@H](O)/C=C/[C@H]1[C@H](O)CC(=O)[C@@H]1CCCCCCC(=O)O [prostaglandin E1] | 28 |  | 
water-soluble | highly unstable | NC(N)=O.OO [Carbamide peroxide, carbamide peroxide] |  | irritant | unfounded
